Holding throughout (test): Test A preemergence
Format in all cases: in vivo

In one assay the test system is Kochia (Kochia scoparia). Conditions: Bassia scoparia, pre-emergence, 240 h; for pest or weed control at 125 g/ha: 125 g ai/ha, visual rating after approx. 10 d, 0 to 100 scale where 0 is no effect and 100 is complete control; for pest or weed control at 500 g/ha: 500 g ai/ha; for pest or weed control at 31 g/ha: 31 g ai/ha, 0 to 100 scale (0 no effect, 100 complete control). The procedure, abridged: (§1)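 Preemergence directed soil spray on seeded pots, or postemergence application to plants 2–10 cm, one- to two-leaf. Solvent mixture non-phytotoxic, with surfactant. Scored ~10 d later, visually, 0–100 vs untreated.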

For assay [1], the system named is barnyardgrass (Echinochloa crus-galli). The conditions noted are these: Echinochloa crus-galli, pre-emergence, 240 h; for pest or weed control at 125 g/ha: 125 g ai/ha, visual rating after approx. 10 d, 0 to 100 scale where 0 is no effect and 100 is complete control; for pest or weed control at 500 g/ha: 500 g ai/ha; for pest or weed control at 31 g/ha: 31 g ai/ha, 0 to 100 scale (0 no effect, 100 complete control). The procedure, abridged: as §1

In assay [2] the test system is giant foxtail (Setaria faberii). Conditions: Setaria faberi, pre-emergence, 240 h; for pest or weed control at 125 g/ha: 125 g ai/ha, visual rating after approx. 10 d, 0 to 100 scale where 0 is no effect and 100 is complete control; for pest or weed control at 500 g/ha: 500 g ai/ha; for pest or weed control at 31 g/ha: 31 g ai/ha, 0 to 100 scale (0 no effect, 100 complete control). The method, boiled down:
as §1

Assay [3] concerns pigweed (Amaranthus retroflexus). Conditions: Amaranthus retroflexus, pre-emergence, 240 h; for pest or weed control at 125 g/ha: 125 g ai/ha, visual rating after approx. 10 d, 0 to 100 scale where 0 is no effect and 100 is complete control; for pest or weed control at 500 g/ha: 500 g ai/ha; for pest or weed control at 31 g/ha: 31 g ai/ha, 0 to 100 scale (0 no effect, 100 complete control).

Assay [4] has as its system ragweed (common ragweed, Ambrosia elatior). Conditions: Ambrosia artemisiifolia, pre-emergence, 240 h; for pest or weed control at 125 g/ha: 125 g ai/ha, visual rating after approx. 10 d, 0 to 100 scale where 0 is no effect and 100 is complete control; for pest or weed control at 500 g/ha: 500 g ai/ha; for pest or weed control at 31 g/ha: 31 g ai/ha, 0 to 100 scale (0 no effect, 100 complete control). The method, boiled down:
as §1

[5] abbreviates: preemergence, read-out: Plant response rating, Kochia.
[6] abbreviates: preemergence, 0 to 100 scale, 0 = no effect, 100 = complete control, read-out: Plant response rating, Kochia.
Where [7] appears, read: preemergence, read-out: Plant response rating, Barnyardgrass.
The mark [8] stands for this setting: preemergence, 0 to 100 scale, 0 = no effect, 100 = complete control, read-out: Plant response rating, Barnyardgrass.
Setting [9] is: preemergence, read-out: Plant response rating, Foxtail, Giant.
[10] abbreviates: preemergence, 0 to 100 scale, 0 = no effect, 100 = complete control, read-out: Plant response rating, Foxtail, Giant.
The mark [11] stands for this setting: preemergence, read-out: Plant response rating, Pigweed.
The mark [12] stands for this setting: preemergence, 0 to 100 scale, 0 = no effect, 100 = complete control, read-out: Plant response rating, Pigweed.
[13] abbreviates: preemergence, read-out: Plant response rating, Ragweed.
[14] abbreviates: preemergence, 0 to 100 scale, 0 = no effect, 100 = complete control, read-out: Plant response rating, Ragweed.
[15] abbreviates: Preemergence, visual injury vs untreated controls after approximately 10 d, read-out: Kochia plant response rating (0 to 100 scale where 0 is no effect and 100 is complete control).
The mark [16] stands for this setting: Preemergence, visual injury vs untreated controls after approximately 10 d, read-out: Barnyardgrass plant response rating (0 to 100 scale where 0 is no effect and 100 is complete control).
The mark [17] stands for this setting: Preemergence, visual injury vs untreated controls after approximately 10 d, read-out: Foxtail, Giant plant response rating (0 to 100 scale where 0 is no effect and 100 is complete control).
Where [18] appears, read: Preemergence, visual injury vs untreated controls after approximately 10 d, read-out: Pigweed plant response rating (0 to 100 scale where 0 is no effect and 100 is complete control).
The mark [19] stands for this setting: Preemergence, visual injury vs untreated controls after approximately 10 d, read-out: Ragweed plant response rating (0 to 100 scale where 0 is no effect and 100 is complete control).
The mark [20] stands for this setting: Preemergence, read-out: Plant response rating, Kochia.
The mark [21] stands for this setting: Preemergence, read-out: Plant response rating, Barnyardgrass.
The mark [22] stands for this setting: Preemergence, read-out: Plant response rating, Foxtail, Giant.
Where [23] appears, read: Preemergence, read-out: Plant response rating, Pigweed.
The mark [24] stands for this setting: Preemergence, read-out: Plant response rating, Ragweed.

Read-outs that look alike come from different tables or passages of the source.

On to `CCc1ccc([C@H]2CNC(=S)[C@@H]2C(=O)Nc2cccc(F)c2C)cc1` [Compound 761], for which the pest or weed control at 125 g/ha in the assay with Kochia (Kochia scoparia) (setting [5]) came out at 30%; in assay [1] (setting [7]), 90%; in assay [2] (setting [9]) it was 60%; in assay [3] (setting [11]), 0%; in assay [4] (setting [13]) it was 0%. In addition, the pest or weed control at 500 g/ha with Kochia (Kochia scoparia) (setting [6]) is 80%; in assay [1] (setting [8]) it was 100%; in assay [2] (setting [10]), 90%; in assay [3] (setting [12]), 0%; in assay [4] (setting [14]), 0%.

As for `CCc1ccc([C@H]2CNC(=S)[C@@H]2C(=O)Nc2cccc(F)c2F)cc1` [Compound 762], the pest or weed control at 125 g/ha with Kochia (Kochia scoparia) (setting [5]) turned out to be 0%; in assay [1] (setting [7]) it was 100%; in assay [2] (setting [9]), 70%; in assay [3] (setting [11]) it was 0%; in assay [4] (setting [13]), 0%. For the same compound, the pest or weed control at 500 g/ha in the assay with Kochia (Kochia scoparia) (setting [6]) was determined as 50%; in assay [1] (setting [8]) it was 100%; in assay [2] (setting [10]), 100%; in assay [3] (setting [12]), 0%; in assay [4] (setting [14]), 50%.

As for `CCc1ccc([C@H]2CNC(=S)[C@@H]2C(=O)Nc2ccccc2SC)cc1` [Compound 763], the pest or weed control at 125 g/ha amounted to 30% with Kochia (Kochia scoparia) (setting [5]); 80% in assay [1] (setting [7]); 0% in assay [2] (setting [9]); 0% in assay [3] (setting [11]); 0% in assay [4] (setting [13]). For the same compound, the pest or weed control at 500 g/ha in the assay with Kochia (Kochia scoparia) (setting [6]) was 30%; in assay [1] (setting [8]), 80%; in assay [2] (setting [10]) it was 50%; in assay [3] (setting [12]), 30%; in assay [4] (setting [14]) it was 0%.

For `O=C1NC[C@H](c2ccc3c(c2)OCO3)[C@H]1C(=O)Nc1ccccc1F` [Compound 767], the pest or weed control at 125 g/ha in the assay with Kochia (Kochia scoparia) (setting [5]) stood at 0%; in assay [1] (setting [7]) it was 90%; in assay [2] (setting [9]), 0%; in assay [3] (setting [11]), 0%; in assay [4] (setting [13]), 0%. For the same compound, the pest or weed control at 500 g/ha in the assay with Kochia (Kochia scoparia) (setting [6]) is 0%; in assay [1] (setting [8]), 90%; in assay [2] (setting [10]), 90%; in assay [3] (setting [12]) it was 0%; in assay [4] (setting [14]), 0%.

With `O=C1NC[C@H](c2ccc(OC(F)F)cc2)[C@H]1C(=O)Nc1ccccc1F` [Compound 778], the pest or weed control at 125 g/ha with Kochia (Kochia scoparia) (setting [5]) was determined as 80%; in assay [1] (setting [7]), 70%; in assay [2] (setting [9]) it was 90%; in assay [3] (setting [11]) it was 30%; in assay [4] (setting [13]), 40%. The pest or weed control at 500 g/ha with Kochia (Kochia scoparia) (setting [15]) was determined as 80%; in assay [1] (setting [16]), 90%; in assay [2] (setting [17]), 90%; in assay [3] (setting [18]), 80%; in assay [4] (setting [19]), 60%.

`CC(F)(F)c1cccc([C@H]2CNC(=O)[C@@H]2C(=O)Nc2ccc(F)cc2F)c1` [Compound 781]: the pest or weed control at 125 g/ha in the assay with Kochia (Kochia scoparia) (setting [5]) came out at 50%; in assay [1] (setting [7]), 80%; in assay [2] (setting [9]), 90%; in assay [3] (setting [11]) it was 0%; in assay [4] (setting [13]), 0%. Besides, the pest or weed control at 500 g/ha in the assay on Kochia (Kochia scoparia) (setting [15]) is 90%; in assay [1] (setting [16]) it was 100%; in assay [2] (setting [17]) it was 100%; in assay [3] (setting [18]), 70%; in assay [4] (setting [19]), 0%.

As to `CC(F)(F)c1cccc([C@H]2CNC(=O)[C@@H]2C(=O)Nc2ccccc2F)c1` [Compound 782], the pest or weed control at 125 g/ha with Kochia (Kochia scoparia) (setting [5]) amounted to 80%; in assay [1] (setting [7]), 80%; in assay [2] (setting [9]) it was 90%; in assay [3] (setting [11]), 0%; in assay [4] (setting [13]), 0%. Also, the pest or weed control at 500 g/ha came to 90% in the assay with Kochia (Kochia scoparia) (setting [15]); 90% in assay [1] (setting [16]); 100% in assay [2] (setting [17]); 50% in assay [3] (setting [18]); 20% in assay [4] (setting [19]).

With `O=C1NC[C@H](c2ccc3c(c2)CCO3)[C@H]1C(=O)Nc1cccc(F)c1F` [Compound 785], the pest or weed control at 125 g/ha worked out at 20% with Kochia (Kochia scoparia) (setting [5]); 90% in assay [1] (setting [7]); 90% in assay [2] (setting [9]); 0% in assay [3] (setting [11]); 0% in assay [4] (setting [13]). Also, the pest or weed control at 500 g/ha in the assay with Kochia (Kochia scoparia) (setting [15]) is 40%; in assay [1] (setting [16]), 90%; in assay [2] (setting [17]), 90%; in assay [3] (setting [18]), 20%; in assay [4] (setting [19]), 0%.

For the compound `Cc1cc([C@H]2CNC(=O)[C@@H]2C(=O)Nc2ccc(F)cc2F)ccc1Cl` [Compound 791], the pest or weed control at 125 g/ha was 50% with Kochia (Kochia scoparia) (setting [5]); 90% in assay [1] (setting [7]); 50% in assay [2] (setting [9]); 0% in assay [3] (setting [11]); 0% in assay [4] (setting [13]). In addition, the pest or weed control at 500 g/ha was 60% in the assay on Kochia (Kochia scoparia) (setting [15]); 90% in assay [1] (setting [16]); 90% in assay [2] (setting [17]); 0% in assay [3] (setting [18]); 40% in assay [4] (setting [19]).

On to `O=C(Nc1cccc(F)c1F)[C@H]1C(=O)N(O)CC[C@@H]1c1ccc(F)cc1` [Compound 805], for which the pest or weed control at 125 g/ha (in the assay on Kochia (Kochia scoparia) (setting [5]); in assay [1] (setting [7]); in assay [2] (setting [9]); in assay [3] (setting [11]); in assay [4] (setting [13])) was 0% each time. Further, the pest or weed control at 31 g/ha (in the assay on Kochia (Kochia scoparia) (setting [20]); in assay [1] (setting [21]); in assay [2] (setting [22]); in assay [3] (setting [23]); in assay [4] (setting [24])) was 0% in each case.

As to `CSc1ccccc1NC(=O)[C@H]1C(=O)N(C)CC[C@@H]1c1ccc2c(c1)OC(F)(F)O2` [Compound 814], the pest or weed control at 125 g/ha (in the assay on Kochia (Kochia scoparia) (setting [5]); in assay [1] (setting [7]); in assay [2] (setting [9]); in assay [3] (setting [11]); in assay [4] (setting [13])) was 0% throughout. Moreover, the pest or weed control at 31 g/ha (in the assay with Kochia (Kochia scoparia) (setting [20]); in assay [1] (setting [21]); in assay [2] (setting [22]); in assay [3] (setting [23]); in assay [4] (setting [24])) was 0% in each case.

Values taken from patent publication US12077503B2, “Substituted cyclic amides and their use as herbicides” (FMC CORPORATION, priority 2015, dated 2024).
